Laboratory results from PubChem BioAssay (NCI).
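Tested at 5 concentrations; 48 h exposure; 96-well plates; endpoints linearly interpolated, else capped at highest concentration. GI50 is the concentration that inhibits growth by half. The concentration for full growth arrest is given as TGI.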

What was measured:
Test in all cases: growth of human tumour cells (NCI), 48 h
[1] = tested on: SF-539 CNS
[2] = tested on: HT29 colon
[3] = tested on: CCRF-CEM leukemia
[4] = tested on: HCT-116 colon
[5] = tested on: SN12C renal
[6] = tested on: OVCAR-3 ovarian
[7] = tested on: ACHN renal
[8] = tested on: MDA-MB-435
[9] = tested on: SK-OV-3 ovarian
[10] = tested on: NCI/ADR-RES ovarian
[11] = tested on: HOP-92 NSCLC
[12] = tested on: NCI-H23 lung
[13] = tested on: EKVX NSCLC
[14] = tested on: NCI-H226 lung
[15] = tested on: DU-145 prostate
[16] = tested on: LOX IMVI melanoma
[17] = tested on: MALME-3M melanoma
[18] = tested on: RPMI-8226 leukemia
[19] = tested on: SW-620 colon
[20] = tested on: 786-0 renal
[21] = tested on: HL-60(TB) leukemia
[22] = tested on: SNB-19 CNS
[23] = tested on: SF-268 CNS
[24] = tested on: UACC-62 melanoma
[25] = tested on: U251 CNS
[26] = tested on: COLO 205 colon
[27] = tested on: SNB-75 CNS
[28] = tested on: A498 renal
[29] = tested on: SK-MEL-28 melanoma
[30] = tested on: BT-549 breast

With Cc1ccc(Cl)cc1-c1nc(N)nc(Nc2ccc(Br)cc2)n1 the GI50 [1] was 0.0406 µM, the TGI [1] was > 29 µM and the GI50 [2] was 0.0365 µM. For the same compound, the GI50 [3] was 0.0444 µM, the GI50 [4] was 0.0435 µM and the TGI [4] was > 100 µM. The GI50 [5] was 0.0628 µM, the TGI [5] was > 100 µM and the GI50 [6] was 0.0317 µM. The GI50 [7] was 0.0911 µM, the TGI [7] was > 100 µM and the GI50 [8] was 0.0222 µM. For the same compound, the TGI [8] was 0.0598 µM, the GI50 [9] was 0.0517 µM and the TGI [9] was 21 µM. The GI50 [10] was 0.0347 µM, the TGI [10] was 0.208 µM and the GI50 [11] was 2.28 µM. For the same compound, the TGI [11] was > 100 µM, the GI50 [12] was 0.0739 µM and the GI50 [13] was 0.667 µM. The TGI [13] was > 100 µM, the GI50 [14] was 1.74 µM and the GI50 [15] was 0.069 µM. For the same compound, the TGI [15] was > 56.5 µM, the GI50 [16] was 0.0687 µM and the TGI [16] was > 100 µM. The GI50 [17] was 0.0703 µM, the TGI [17] was > 100 µM and the GI50 [18] was 0.0851 µM. For the same compound, the TGI [18] was > 100 µM, the GI50 [19] was 0.0408 µM and the TGI [19] was > 100 µM. For the same compound, the GI50 [20] was 0.0596 µM, the TGI [20] was > 100 µM and the GI50 [21] was 0.0305 µM. For the same compound, the GI50 [22] was 0.0832 µM, the TGI [22] was > 100 µM and the TGI [23] was > 100 µM. For the same compound, the GI50 [24] was 0.0594 µM, the TGI [24] was > 100 µM and the GI50 [25] was 0.0461 µM. The TGI [25] was 8.72 µM, the GI50 [26] was 0.0454 µM and the TGI [26] was 0.254 µM. For the same compound, the GI50 [27] was 0.029 µM, the TGI [27] was > 100 µM and the GI50 [28] was 0.0326 µM. For the same compound, the TGI [28] was 2.47 µM, the GI50 [29] was 0.126 µM and the TGI [29] was > 100 µM. The GI50 [30] was 0.0581 µM.
